Counter-ions that a name gives are not always drawn.
Columns and labels:
plasma thrombin activity = experiment: Plasma thrombin activity in pups pre-treated with PCI-27483 before intestinal injury; format: in vivo, mice; settings: pre-treatment with PCI-27483
Excerpt: FIGS. 5A-5F. Resident intestinal macrophages release tissue factor to activate thrombin during neonatal intestinal injury. FIG. 5a. Scatterplots (means±SEM) show tissue factor (TF) concentrations in plasma and intestinal tissue at serial time points during neonatal intestinal injury, measured by ELISA. N=6 mice/group; Kruskal Wallis H test with Dunn's post-test for group comparisons, * P<0.05, ** P<0.01 vs. control; FIG. 5b. Plasma thrombin activity in mouse pups with intestinal injury vs. mouse pups first treated with PCI-27483, which inhibits the tissue factor-factor VII extrinsic pathway tenase complex. N=4 mice/group; Kruskal Wallis H test with Dunn's post-test for group comparisons, ***P<0.001 vs. control, ##P<0.01 vs. control treated with PCI-27483; FIG. 5c. Representative fluorescence photomicrographs show immunoreactivity for TF (green) in F4/80^+ (red) resident macrophages in control ileum and colon. […] FIG. 5d Scatter plots on right summarize the fluorescence intensity for TF in control intestinal epithelial cells (IECs), control macrophages, injury IECs, and injury macrophages (top) and in control colonic epithelial cells (CECs), control macrophages, injury CECs, and injury macrophages. […]
To investigate the mechanisms for thrombin activation, tissue factor (TF) concentrations were evaluated during NEC-like intestinal injury. […]

[1] = in vivo; cited from earlier work
[2] = cited from earlier work
P10 platelets [3] = experiment: Mixing experiment: dense granule discharge (mepacrine release) of control platelets resuspended in intestinal injury plasma; format: cell-based, mice; settings: mepacrine fluorescence released into supernatant; intestinal injury plasma at 3 h with added inhibitor
Procedure: FIGS. 12A and 12B. (A) Scatter bar diagrams (means±SEM) show mepacrine fluorescence signal released from control P10 platelets into the supernatant, following resuspension in plasma from pups in (1) control group; (2) intestinal injury at 3 h; and (3) intestinal injury at 3 h with added bivalirudin, a synthetic peptide inhibitor of thrombin. N=6 mice/group; (B) mepacrine fluorescence released from control platelets following resuspension in plasma from (1) control group (N=8 mice); (2) intestinal injury at 3 h (N=12 mice); and (3) intestinal injury at 3 h with added D-phenylalanyl-prolyl-arginyl chloromethyl ketone (PPACK), a different thrombin inhibitor (N=11 mice). Kruskal Wallis H test with Dunn's post-test for group comparisons; * P<0.05, ** P<0.01 vs. control; #P<0.05, ###P<0.001 vs. intestinal injury plasma.
(§1) Neonatal platelets can be hyporesponsive under specific conditions, [Mull M M, Hathaway W E. Altered platelet function in newborns. Pediatr Res. 1970; 4(3):229-237] and therefore, the ability of neonatal murine platelets to respond to thrombin was checked. Treatment of mepacrine-stained P10 platelets with recombinant thrombin ([…]) caused dense granule discharge within 15 min (FIG. 11). […]
(§2) Dense granules were stained with mepacrine (Quinacrine dihydrochloride; Sigma). […] Fluorescence was measured at 436/525 nm.

[4] = system: platelets from control pups; experiment: CD31 expression on control platelets resuspended in intestinal injury plasma; format: cell-based, mice; settings: bivalirudin 200 ng/mL; platelets resuspended ×45 min
Procedure: (§3) FIG. 3b. Plasma from mouse pups with intestinal injury activates platelets via thrombin. […] N=3 mice/group; 2 runs; Kruskal Wallis H test with Dunn's post-test for group comparisons, ** P<0.01 vs. control, #P<0.05 vs. intestinal injury; FIG. 3c Thrombin activates platelets during murine neonatal intestinal injury. YFP^+ platelets were transfused into WT C57BL/6 pups with intestinal injury, and blood samples were drawn after 3 h. […] Treatment of YFP^+ platelets with bivalirudin prior to transfusion blocked activation-related increase in CD31 expression (lower right). […] N=4 mice/group; Kruskal Wallis H test with Dunn's post-test for group comparisons, * P<0.05 vs. untreated YFP^+ platelets, #P<0.05 vs. endogenous platelets in the bivalirudin-treated YFP^+ platelet transfusion group. […]
(§4) Platelet activation markers were measured by flow cytometry, using the following fluorescence-labeled antibodies: JON/A (Emfret); anti-CD62P, anti-CD41/GPIIb, CD61/integrin αvβ3, CD31/PECAM-1 (BioLegend, San Diego, Calif.). Platelets were evaluated by size-gate threshold adjustment with microbeads of known diameter (100 nm to 1.3 μm; Spherotech, Lake Forest, Ill.) in forward and side-scatter. […] Platelet aggregation was measured by impedance method and ATP release by luminometry using a 2-channel Chrono-Log lumi-aggregometer (model 700, Chrono-Log, Havertown, Pa., USA) per established methods. […]

P10 platelets [5] = experiment: Duration of bivalirudin inhibition of thrombin-mediated dense granule discharge after point-exposure and wash; format: cell-based, mice; settings: platelets treated with bivalirudin in vitro and washed; thrombin 25 ng/mL
Procedure: FIG. 13. Line diagrams (means±SEM) show mepacrine fluorescence signal released over time from control (blue) and bivalirudin-treated and washed (orange) P10 platelets into the supernatant, following treatment with thrombin (25 ng/mL). Data represent 3 separate experiments; each experiment included platelets pooled from 3 pups; Kruskal Wallis H test with Dunn's post-test for group comparisons; * P<0.05 vs. control.
In vivo assessment was performed for thrombin-mediated platelet activation during neonatal intestinal injury. […] In the next in vivo study, wild-type neonatal mice 3 h into intestinal injury were transfused with platelets expressing enhanced yellow fluorescence protein (YFP; platelets harvested from progeny of PF4-cre mice (C57BL/6-Tg(Cxcl4-cre)Q3Rsko/J)×R26-stop-YFP mutant mice (B6.129X1-Gt(ROSA)26Sortm1(EYFP)Cos/J). In some mice, YFP^+ platelets were pre-treated with bivalirudin prior to transfusion, and CD31 expression was then measured for both the endogenous and the bivalirudin-treated transfused YFP^+ platelets in blood samples drawn 3 h after the transfusion. Bivalirudin-pretreatment curtailed CD31 expression on YFP^+ platelets (FIG. 3c), providing further evidence for a role of thrombin as the primary platelet activator in NEC-like neonatal intestinal injury. […]

YFP+ platelets = experiment: Transfusion of bivalirudin-pretreated YFP+ platelets into pups with intestinal injury, CD31 expression; format: in vivo, mice; settings: YFP+ platelets pre-treated with bivalirudin prior to transfusion, blood drawn 3 h after transfusion
Procedure: as §3, §4

P10 platelets [6] = experiment: Recombinant thrombin treatment of mepacrine-stained platelets, dense granule discharge; format: cell-based, mice; settings: recombinant thrombin (25 μg/mL)
Procedure: FIGS. 11A and 11B. Scatter bar diagrams (means±SEM) show (A) mepacrine fluorescence signal in platelets isolated from control P10 mice at serial time-points after treatment with recombinant thrombin (25 ng/mL). Fluorescence signal normalized and depicted as percent of control. Data represent 3 separate experiments; each experiment included platelets pooled from 3 pups; (B) mepacrine fluorescence signal released into the supernatant after thrombin stimulation. Kruskal Wallis H test with Dunn's post-test for group comparisons; ** P<0.01,*** P<0.001 vs. control.
as §1, §2

N=C(N)c1ccc2nc(-c3cc(CC(=O)N[C@@H](CC(=O)O)C(=O)O)cc(-c4cc(S(N)(=O)=O)ccc4O)c3O)[nH]c2c1 [PCI-27483]
rise in plasma thrombin activity during intestinal injury (plasma thrombin activity): blocked the rise

N=C(N)NCCCC(NC(=O)C1CCCN1C(=O)[C@H](N)Cc1ccccc1)C(=O)CCl (stereo partly drawn) [PPACK, D-phenylalanyl-N-[(1S)-4-[(aminoiminomethyl)amino]-1-(2-chloroacetyl)butyl]-L-prolinamide, trifluoroacetate salt]
distribution half-life [1]: 7 min | elimination half-life [1]: 2.9 min | LD50 ([2]; in vivo): greater than 50 mg/kg | long-term toxicity ([2]; mice): no long-term toxicity

bivalirudin: synthetic peptide of 20 amino acids (SEQ ID NO: 1); specific and reversible direct thrombin inhibitor
platelet dense granule discharge caused by plasma from mice with intestinal injury (P10 platelets [3]): blocked | effects of intestinal injury plasma on platelet CD31 expression [4]: blocked | time bivalirudin-treated platelets remained refractory to thrombin (P10 platelets [5]): ≥ 120 min | CD31 expression on transfused YFP+ platelets (YFP+ platelets): blocked | CD31 expression on transfused YFP+ platelets (YFP+ platelets; listed as Bivalirudin): curtailed

recombinant thrombin: Recombinant mouse thrombin (Molecular Innovations), used as platelet activator
time to dense granule discharge (P10 platelets [6]): ≤ 15 min

From US11779544B1, “Antithrombotic nanoparticles and methods for treating necrotizing enterocolitis” (University of South Florida, priority 2018, dated 2023)
